melting point: 173 to 175 °C
Structure (SMILES): COC(=O)c1cc(OC)c(OC(=O)c2cccnc2)c(OC)c1

Source: patent US20220009892A1, “SUBSTITUTED PYRIDINE CARBOXYLIC ACIDS, THEIR PREPARATION METHOD AND COMPOSITIONS THEREOF” (INCILIA THERAPEUTICS PRIVATE LIMITED, priority 2018, published 2022)
